Test results from PubChem BioAssay AID1845213 (Molecular Pharmacology Branch, DTP, NCI, 2023).
Where “and” joins values, the source holds several entries; their conditions need not be identical. Equal entries are not always repeated. Calls of active or inactive are those of the source. How the source made its calls: active means viability on the fitted dose curve at most 10% of control; inactive means the rest.

Tested on: NCI-H841 complex tumor spheroid viability
Experiment: Anticancer human tumor NCI-H841 cell line growth inhibition;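 on IC50: spheroids exposed to compounds for 7 days before readout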;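 on viability, T/C: spheroids exposed to compounds for 7 days before readout; 100% = DMSO vehicle control wells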
Conditions: for IC50: curve of first compound; for viability, T/C: stronger effect = lower value
How it was run: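 Complex spheroids of malignant cells with endothelial cells and mesenchymal stem cells; agents alone or combined, from near clinical Cmax (or 10 microM if unknown) down in half-log steps, 0.25% DMSO final.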

[2H]c1nc(C)nc([2H])c1-c1cc(NC[C@@H](C)c2cccc3c(C(=O)NC)ccnc23)ncn1 + Cn1nnc2c(C(N)=O)ncn2c1=O
> 10000 nM: IC50 (second compound 1 µM) | IC50 (second compound 3.16 µM) | IC50 (second compound 10 µM) | IC50 (second compound 31.6 µM) | IC50 (second compound 100 µM)
inactive: viability, T/C (second compound 1 µM, first compound 0.0316 µM) 98% | viability, T/C (second compound 1 µM, first compound 0.1 µM) 97.6% | viability, T/C (second compound 1 µM, first compound 0.316 µM) 94.8% | viability, T/C (second compound 1 µM, first compound 1 µM) 95% | viability, T/C (second compound 1 µM, first compound 3.16 µM) 93.2% | viability, T/C (second compound 1 µM, first compound 10 µM) 91.4% | viability, T/C (second compound 3.16 µM, first compound 0.0316 µM) 98.8% | viability, T/C (second compound 3.16 µM, first compound 0.1 µM) 99.8% | viability, T/C (second compound 3.16 µM, first compound 0.316 µM) 101% | viability, T/C (second compound 3.16 µM, first compound 1 µM) 101% | viability, T/C (second compound 3.16 µM, first compound 3.16 µM) 95% | viability, T/C (second compound 3.16 µM, first compound 10 µM) 99.3% | viability, T/C (second compound 10 µM, first compound 0.0316 µM) 99.6% | viability, T/C (second compound 10 µM, first compound 0.1 µM) 99.8% | viability, T/C (second compound 10 µM, first compound 0.316 µM) 97.7% | viability, T/C (second compound 10 µM, first compound 1 µM) 101% | viability, T/C (second compound 10 µM, first compound 3.16 µM) 98.9% | viability, T/C (second compound 10 µM, first compound 10 µM) 96.5% | viability, T/C (second compound 31.6 µM, first compound 0.0316 µM) 97% | viability, T/C (second compound 31.6 µM, first compound 0.1 µM) 97.7% | viability, T/C (second compound 31.6 µM, first compound 0.316 µM) 100% | viability, T/C (second compound 31.6 µM, first compound 1 µM) 98% | viability, T/C (second compound 31.6 µM, first compound 3.16 µM) 97.4% | outcome (second compound 31.6 µM, first compound 10 µM) | viability, T/C (second compound 100 µM, first compound 0.0316 µM) 93.4% | viability, T/C (second compound 100 µM, first compound 0.1 µM) 95.7% | viability, T/C (second compound 100 µM, first compound 0.316 µM) 92.5% | viability, T/C (second compound 100 µM, first compound 1 µM) 95.9% | viability, T/C (second compound 100 µM, first compound 3.16 µM) 95.8% | viability, T/C (second compound 100 µM, first compound 10 µM) 91.2%

Cn1ncnc1[C@H]1c2n[nH]c(=O)c3cc(F)cc(c23)N[C@@H]1c1ccc(F)cc1
inactive: viability, T/C (compound 0.00949 µM) 90.1% and 29.7% and 97.4% | viability, T/C (compound 0.03 µM) 85.4% and 30.6% and 90.1% | viability, T/C (compound 0.0949 µM) 80.3% and 9.88% and 89.6% | viability, T/C (compound 0.3 µM) 55.7% and 62.9% and 83.3%
active: viability, T/C (compound 3 µM) 7.92% and 2.5% and 1.44%

Cn1ncnc1[C@H]1c2n[nH]c(=O)c3cc(F)cc(c23)N[C@@H]1c1ccc(F)cc1 + Cn1nnc2c(C(N)=O)ncn2c1=O
18.6 nM: IC50 (second compound 3.16 µM)
369 nM: IC50 (second compound 1 µM)
active: viability, T/C (second compound 1 µM, first compound 0.949 µM) 4.54% | viability, T/C (second compound 1 µM, first compound 3 µM) 2.08% | viability, T/C (second compound 10 µM, first compound 0.0949 µM) 9.14% | viability, T/C (second compound 10 µM, first compound 0.3 µM) 11.2% | viability, T/C (second compound 10 µM, first compound 0.949 µM) 6.05% | viability, T/C (second compound 10 µM, first compound 3 µM) 2.46% | viability, T/C (second compound 31.6 µM, first compound 0.03 µM) 6.84% | viability, T/C (second compound 31.6 µM, first compound 0.0949 µM) 3.57% | viability, T/C (second compound 31.6 µM, first compound 0.3 µM) 2.41% | viability, T/C (second compound 31.6 µM, first compound 0.949 µM) 2.88% | viability, T/C (second compound 31.6 µM, first compound 3 µM) 3.21% | viability, T/C (second compound 100 µM, first compound 0.00949 µM) 3.08% | viability, T/C (second compound 100 µM, first compound 0.03 µM) 2.93% | viability, T/C (second compound 100 µM, first compound 0.0949 µM) 3.16% | viability, T/C (second compound 100 µM, first compound 0.3 µM) 3.31% | viability, T/C (second compound 100 µM, first compound 0.949 µM) 8.92% | viability, T/C (second compound 100 µM, first compound 3 µM) 3.58%
< 9.49 nM: IC50 (second compound 10 µM) | IC50 (second compound 31.6 µM) | IC50 (second compound 100 µM)
inactive: viability, T/C (second compound 1 µM, first compound 0.00949 µM) 89.2% | viability, T/C (second compound 1 µM, first compound 0.03 µM) 86.4% | viability, T/C (second compound 1 µM, first compound 0.0949 µM) 78.1% | viability, T/C (second compound 1 µM, first compound 0.3 µM) 60.3% | viability, T/C (second compound 3.16 µM, first compound 0.00949 µM) 90.5% | viability, T/C (second compound 3.16 µM, first compound 0.03 µM) 9.92% | viability, T/C (second compound 3.16 µM, first compound 0.0949 µM) 42.8% | viability, T/C (second compound 3.16 µM, first compound 0.3 µM) 42.2% | viability, T/C (second compound 3.16 µM, first compound 0.949 µM) 6.61% | viability, T/C (second compound 3.16 µM, first compound 3 µM) 5.73% | viability, T/C (second compound 10 µM, first compound 0.00949 µM) 25.7% | viability, T/C (second compound 10 µM, first compound 0.03 µM) 54.8% | viability, T/C (second compound 31.6 µM, first compound 0.00949 µM) 13.9%
